One assay deals with PI3Kα (Homo sapiens, UniProt P42336). The assay can be described thus: PI3Kα kinase activity, Adapta TR-FRET ADP detection. It counts as biochemical. As to conditions: purified p110α/p85α heterodimer, triplicate; read-out: Kinases IC50 PI3Kα. The method, then:
(§1) The activity of the PI3Kα kinase was evaluated by using a purified heterodimer (reference: PV4788 from Invitrogen) consisting of the α catalytic p110 subunit (PIK3CA) and the α regulation p85 subunit (PIK3R1). The assay of the kinase with the kit Adapta™ (reference: PV5099 from Invitrogen) is an enzymatic test based on the detection of ADP, produced during the reaction, by the fluorescence technique TR-FRET. It took place in a 384-well plate and was able to be divided into two phases: an enzymatic reaction phase, and a phase for detecting the ADP level.
(§2) During the enzymatic reaction phase, the following components were mixed in 10 μL of a same well: 2.5 μL of each dilution in series of inhibitors taken up in DMSO and then diluted to 1/25 in the reaction buffer (250 mM HEPES pH 7.5, 500 mM NaCl, 0.15 CHAPS, 5 mM EGTA, 15 mM MgCl2 and 1 mM DTT, ref.: PV5101 from Invitrogen), 2.5 μL of a solution containing PI3K at the optimum concentration (concentration defined according to the optimization step described in the operating procedure of the kit) diluted in the same reaction buffer, and finally, 5 μL of a solution containing 20 μM ATP and 100 μM PIP2 diluted in the reaction buffer. For each inhibitor concentration, the reaction was conducted in three copies (triplicate). The reaction was then incubated for 60 min at room temperature without any stirring in darkness.
(§3) During the phase for detecting ADP, 5 μL of a detection solution containing an anti-ADP antibody labeled with europium (6 nM), a tracer of the Alexa Fluor® 647 type coupled with ADP (30 nM), and EDTA (30 mM, for stopping the kinase reaction) were diluted in the dilution buffer (reference: PV3574 from Invitrogen). After 30 min of incubation at room temperature with stirring (40 rpm) in darkness, the 384-well plates were read in a plate reader Victor V configured for HTRF (Perkin Elmer). The excitation was produced at 340 nm and emission was measured at 665 nm and 615 nm. The inhibition curve was then plotted according to the emission ratio at 665 nm/615 nm versus the inhibitor concentration.
(§4) In order to obtain a linear response of the signal, a titration curve ATP-ADP, corresponding to the conversion % of ATP into ADP, was achieved by varying both of these species while keeping [ADP]+[ATP]=10 μM. The emission ratio at 665 nm/615 nm resulting from this (Y) was plotted versus the conversion % of ATP into ADP (X). The data of this curve were formatted according to a model with three hyperbolic parameters from the following equation: Y=C+A*(1−(X/(B+X))).
(§5) The software package GraphPad™ Prism® thus allows calculation of the parameters A, B and C. A conversion % corresponds to an emission ratio 665 nm/615 nm, this percentage is calculated by using the following equation: Conversion %=B*(C+A−Ratio)/(Ratio−C)
(§6) The three parameters A, B and C having been defined by the preceding equation, the conversion % was therefore able to be plotted versus the inhibitor concentration. The amount of inhibitor required for causing a 50% variation in the % conversion of ATP into ADP corresponds to the IC50 value of the inhibitor.
A general note: TR-FRET usually uses a lanthanide donor and a delayed reading to cut background.

The target of another assay is PI3Kγ (Homo sapiens, UniProt P48736). Description: PI3Kγ kinase activity, Adapta TR-FRET ADP detection. Format: biochemical. To be noted: p110γ catalytic subunit; read-out: Kinases IC50 PI3Kγ. The method, then:
as §1, §2, §3, §4, §5, §6
(§7) The activity of the kinase PI3Kγγ (PV4786 from Invitrogen) was evaluated on the p110γγ catalytic subunit (PI3KCG) and that of the kinase PI3Kδδ on the purified heterodimer (PV5273) respectively consisting of the δδ catalytic p110 subunit (PIK3CD) and the α regulation p85 subunit (PIK3R1) by following the same procedure.

Another assay addresses PI3Kδ (Homo sapiens, UniProt O00329). The assay can be described thus: PI3Kδ kinase activity, Adapta TR-FRET ADP detection. It counts as biochemical. As to conditions: purified p110δ/p85α heterodimer; read-out: Kinases IC50 PI3Kδ. The method, then: as §1, §2, §3, §4, §5, §6, §7
The next assay deals with mTOR (Homo sapiens, UniProt P42345). Description: mTOR kinase activity, LANCE Ultra TR-FRET. It counts as biochemical. As to conditions: truncated mTOR protein, triplicate; read-out: Kinases IC50 mTOR. The procedure: The activity of the mTOR kinase was evaluated by using a purified truncated protein of the amino acids 1-1359 (reference: PV4753 from Invitrogen). The assay of the activity of the enzyme was carried out with the kit LANCE® Ultra which is an enzymatic test based on the detection of a phosphorylated peptide produced during the reaction, by using the fluorescence technique TR-FRET. It took place in a 384-well plate and was able to be divided into two phases: an enzymatic reaction phase and a phase for detecting the phosphorylated peptide.
During the enzymatic reaction phase, the following components were mixed in 10 μL of a same well: 5 μL of each dilution in series of inhibitors taken up in DMSO and then diluted to 1/25 in the reaction buffer (50 mM HEPES pH 7.5, 0.1% Tween-20, 1 mM EGTA, 10 mM MnCl2, 3 mM MgCl2 and 2 mM of DTT), 2.5 μL of a solution containing mTOR at the optimum concentration (concentration defined according to the optimization step described in the operating procedure of the kit) diluted in the same reaction buffer, and finally 2.5 μL of a solution containing 40 μM of ATP and 200 μM non-phosphorylated peptide diluted in the reaction buffer. For each inhibitor concentration, the reaction was conducted in three copies (triplicate). The reaction was then incubated for 120 min at room temperature without any stirring in darkness.
During the phase for detecting the phosphorylated peptide, 5 μL of an EDTA solution (32 mM) diluted in the dilution buffer (ref.: CR97-100 from Perkin Elmer) were injected into each well. After 5 min of incubation with stirring, 5 μL of a phosphorylated anti-peptide antibody solution labeled with europium (8 nM) and diluted in the same dilution buffer was added into each well. After 60 min of incubation at room temperature with stirring (40 rpm) in darkness, the 384-well plates were read in a plate reader Victor V configured for HTRF (Perkin Elmer). […] The inhibition curve was then plotted according to the fluorescence intensity value at 665 nm versus the inhibitor concentration.
The amount of inhibitor required for causing a 50% variation in the intensity of the signal corresponds to the IC50 value of the inhibitor.

For the next assay, the system named is HUH7. The assay can be described thus: Toxicity test on cells, HUH7. It counts as cell-based. As to conditions: Homo sapiens, Huh-7; 48 hours of treatment, Hoechst nuclei staining. The method, then:
(§8) The compounds according to the invention were also tested on the cell lines HuH7, CaCo-2, HCT116, PC3, NCl, HacaT and Fibroblasts.
(§9) Operating Procedure: The cells were cultivated according to the ECACC recommendations. The toxicity test of the compounds on these cells was conducted as follows: 4×10^3 cells/well were sown in 96 wells. 24 hours after sowing the cells, the cells were exposed to increased concentrations of the compounds (0.1 μM-0.3 μM-0.9 μM-2.7 μM-8.3 μM-25 μM). After 48 hours of treatment, the cells were washed in PBS and bound in a cold ethanol/acetic acid (90/5) mixture for 20 minutes. Next, the nuclei were coloured with […] (Sigma). The acquisition of images and the analysis was carried out by means of a reader Cellomics ArrayScan VTI/HCS (Thermo Scientific).

The subject of the next assay is CaCo2. The assay can be described thus: Toxicity test on cells, CaCo2. Format: cell-based. As to conditions: Homo sapiens, Caco-2; 48 hours of treatment, Hoechst nuclei staining. The procedure:
as §8, §9

For a further assay, the system named is MDA. Description: Toxicity test on cells, MDA. As to conditions: 48 hours of treatment, Hoechst nuclei staining. It counts as cell-based. The procedure:
[The procedure below names another cell line; the source lists this cell line under the same test.] as §8, §9

The next assay has as its system HCT116. The assay can be described thus: Toxicity test on cells, HCT116. Format: cell-based. To be noted: Homo sapiens, HCT-116; 48 hours of treatment, Hoechst nuclei staining. The method, then:
as §8, §9

The subject of a further assay is PC3. The assay can be described thus: Toxicity test on cells, PC3. It counts as cell-based. To be noted: Homo sapiens, PC-3; 48 hours of treatment, Hoechst nuclei staining. The procedure: as §8, §9
For another assay, the system named is NCl. The assay can be described thus: Toxicity test on cells, NCl. Format: cell-based. To be noted: 48 hours of treatment, Hoechst nuclei staining. The procedure: as §8, §9
A further assay concerns Fibroblasts. The assay can be described thus: Toxicity test on cells, Fibroblasts. It counts as cell-based. As to conditions: Fibroblast; 48 hours of treatment, Hoechst nuclei staining. The procedure: as §8, §9

The record followed here is US10202372B2, “Trisubstituted pyrido[2,3-D]pyrimidines, methods for preparing same and therapeutic uses thereof” (CENTRE NATIONAL DE LA RECHERCHE SCIENTIFIQUE (C.N.R.S), priority 2012, dated 2019).

pIC50: −log10 of the molar value.

Sequence of PI3Kα (P42336 whole entry): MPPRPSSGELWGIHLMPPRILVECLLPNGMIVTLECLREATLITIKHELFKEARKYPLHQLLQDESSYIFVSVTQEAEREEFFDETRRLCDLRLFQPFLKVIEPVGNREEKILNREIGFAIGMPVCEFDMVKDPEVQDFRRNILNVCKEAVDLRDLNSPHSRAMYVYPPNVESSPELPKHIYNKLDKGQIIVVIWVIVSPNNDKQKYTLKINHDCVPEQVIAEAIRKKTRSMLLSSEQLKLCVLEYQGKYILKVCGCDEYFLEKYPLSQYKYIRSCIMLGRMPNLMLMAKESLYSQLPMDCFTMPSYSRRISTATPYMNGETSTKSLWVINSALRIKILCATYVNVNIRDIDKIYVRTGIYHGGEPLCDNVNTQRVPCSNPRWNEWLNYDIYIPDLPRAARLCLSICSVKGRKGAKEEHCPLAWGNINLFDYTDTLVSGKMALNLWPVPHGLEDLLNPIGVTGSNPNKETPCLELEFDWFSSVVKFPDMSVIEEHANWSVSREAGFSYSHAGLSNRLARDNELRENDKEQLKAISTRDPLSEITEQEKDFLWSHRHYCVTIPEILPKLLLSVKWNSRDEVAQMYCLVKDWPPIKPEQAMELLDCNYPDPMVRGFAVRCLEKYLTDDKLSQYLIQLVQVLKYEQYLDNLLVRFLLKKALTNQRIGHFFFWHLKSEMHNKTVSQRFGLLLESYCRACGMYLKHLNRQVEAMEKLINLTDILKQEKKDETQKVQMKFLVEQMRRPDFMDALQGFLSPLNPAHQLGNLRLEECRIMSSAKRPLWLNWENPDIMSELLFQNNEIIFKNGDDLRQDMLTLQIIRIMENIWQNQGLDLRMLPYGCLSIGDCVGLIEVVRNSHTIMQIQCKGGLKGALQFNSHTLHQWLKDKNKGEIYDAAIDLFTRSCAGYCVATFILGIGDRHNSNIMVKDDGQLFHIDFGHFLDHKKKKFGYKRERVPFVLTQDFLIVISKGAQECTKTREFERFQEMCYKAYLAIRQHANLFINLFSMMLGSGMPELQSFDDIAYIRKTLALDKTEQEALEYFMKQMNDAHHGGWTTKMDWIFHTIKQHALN
Sequence of PI3Kα (P27986 whole entry partner): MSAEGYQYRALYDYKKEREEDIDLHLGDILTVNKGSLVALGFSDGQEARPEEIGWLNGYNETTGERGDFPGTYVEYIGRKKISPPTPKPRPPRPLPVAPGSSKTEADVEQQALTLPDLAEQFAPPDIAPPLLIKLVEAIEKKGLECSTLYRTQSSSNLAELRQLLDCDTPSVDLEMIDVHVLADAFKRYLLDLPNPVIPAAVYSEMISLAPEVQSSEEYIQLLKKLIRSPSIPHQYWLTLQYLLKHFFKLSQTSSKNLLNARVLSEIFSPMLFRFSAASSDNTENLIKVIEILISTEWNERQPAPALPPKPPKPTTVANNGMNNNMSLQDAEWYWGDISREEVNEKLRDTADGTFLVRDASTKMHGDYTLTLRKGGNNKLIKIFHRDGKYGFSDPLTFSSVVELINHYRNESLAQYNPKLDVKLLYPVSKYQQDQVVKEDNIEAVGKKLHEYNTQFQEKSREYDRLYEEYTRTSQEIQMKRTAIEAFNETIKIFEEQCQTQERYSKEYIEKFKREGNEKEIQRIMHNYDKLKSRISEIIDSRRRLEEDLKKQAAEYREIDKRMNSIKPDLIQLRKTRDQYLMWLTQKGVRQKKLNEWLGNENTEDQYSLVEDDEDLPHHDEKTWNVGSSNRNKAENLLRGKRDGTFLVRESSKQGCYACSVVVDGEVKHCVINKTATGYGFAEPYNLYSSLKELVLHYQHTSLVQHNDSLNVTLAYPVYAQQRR
Sequence of PI3Kδ (O00329 whole entry, the tested form may be a part): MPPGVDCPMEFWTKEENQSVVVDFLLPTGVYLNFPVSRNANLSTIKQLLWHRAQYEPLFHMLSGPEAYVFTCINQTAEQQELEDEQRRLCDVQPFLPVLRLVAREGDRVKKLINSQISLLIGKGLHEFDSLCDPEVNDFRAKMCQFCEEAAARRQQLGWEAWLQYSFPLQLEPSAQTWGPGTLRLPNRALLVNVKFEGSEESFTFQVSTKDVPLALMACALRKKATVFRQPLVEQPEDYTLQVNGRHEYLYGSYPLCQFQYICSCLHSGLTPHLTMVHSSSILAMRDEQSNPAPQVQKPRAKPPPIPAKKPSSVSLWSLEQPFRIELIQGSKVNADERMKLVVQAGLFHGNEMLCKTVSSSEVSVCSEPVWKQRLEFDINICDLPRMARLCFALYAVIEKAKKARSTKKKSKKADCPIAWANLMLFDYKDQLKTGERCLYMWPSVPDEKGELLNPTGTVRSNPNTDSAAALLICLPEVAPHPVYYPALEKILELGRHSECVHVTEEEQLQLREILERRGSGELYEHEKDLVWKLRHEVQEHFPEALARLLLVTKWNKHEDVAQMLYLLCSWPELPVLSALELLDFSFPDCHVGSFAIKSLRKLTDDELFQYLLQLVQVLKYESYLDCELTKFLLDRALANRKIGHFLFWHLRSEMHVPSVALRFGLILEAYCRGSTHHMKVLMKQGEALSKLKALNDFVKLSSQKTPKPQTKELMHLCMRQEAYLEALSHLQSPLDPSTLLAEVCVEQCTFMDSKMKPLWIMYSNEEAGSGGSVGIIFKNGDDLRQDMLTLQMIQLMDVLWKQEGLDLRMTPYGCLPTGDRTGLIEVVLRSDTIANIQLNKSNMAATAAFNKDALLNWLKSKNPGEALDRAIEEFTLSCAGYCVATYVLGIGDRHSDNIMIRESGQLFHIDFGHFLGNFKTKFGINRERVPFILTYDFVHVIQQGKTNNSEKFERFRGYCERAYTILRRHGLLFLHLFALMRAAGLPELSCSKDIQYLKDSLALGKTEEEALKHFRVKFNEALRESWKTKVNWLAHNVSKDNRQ
Sequence of PI3Kδ (P27986 whole entry partner, the tested form may be a part): as the sequence (P27986 whole entry partner) above
Sequence of PI3Kγ (P48736 whole entry): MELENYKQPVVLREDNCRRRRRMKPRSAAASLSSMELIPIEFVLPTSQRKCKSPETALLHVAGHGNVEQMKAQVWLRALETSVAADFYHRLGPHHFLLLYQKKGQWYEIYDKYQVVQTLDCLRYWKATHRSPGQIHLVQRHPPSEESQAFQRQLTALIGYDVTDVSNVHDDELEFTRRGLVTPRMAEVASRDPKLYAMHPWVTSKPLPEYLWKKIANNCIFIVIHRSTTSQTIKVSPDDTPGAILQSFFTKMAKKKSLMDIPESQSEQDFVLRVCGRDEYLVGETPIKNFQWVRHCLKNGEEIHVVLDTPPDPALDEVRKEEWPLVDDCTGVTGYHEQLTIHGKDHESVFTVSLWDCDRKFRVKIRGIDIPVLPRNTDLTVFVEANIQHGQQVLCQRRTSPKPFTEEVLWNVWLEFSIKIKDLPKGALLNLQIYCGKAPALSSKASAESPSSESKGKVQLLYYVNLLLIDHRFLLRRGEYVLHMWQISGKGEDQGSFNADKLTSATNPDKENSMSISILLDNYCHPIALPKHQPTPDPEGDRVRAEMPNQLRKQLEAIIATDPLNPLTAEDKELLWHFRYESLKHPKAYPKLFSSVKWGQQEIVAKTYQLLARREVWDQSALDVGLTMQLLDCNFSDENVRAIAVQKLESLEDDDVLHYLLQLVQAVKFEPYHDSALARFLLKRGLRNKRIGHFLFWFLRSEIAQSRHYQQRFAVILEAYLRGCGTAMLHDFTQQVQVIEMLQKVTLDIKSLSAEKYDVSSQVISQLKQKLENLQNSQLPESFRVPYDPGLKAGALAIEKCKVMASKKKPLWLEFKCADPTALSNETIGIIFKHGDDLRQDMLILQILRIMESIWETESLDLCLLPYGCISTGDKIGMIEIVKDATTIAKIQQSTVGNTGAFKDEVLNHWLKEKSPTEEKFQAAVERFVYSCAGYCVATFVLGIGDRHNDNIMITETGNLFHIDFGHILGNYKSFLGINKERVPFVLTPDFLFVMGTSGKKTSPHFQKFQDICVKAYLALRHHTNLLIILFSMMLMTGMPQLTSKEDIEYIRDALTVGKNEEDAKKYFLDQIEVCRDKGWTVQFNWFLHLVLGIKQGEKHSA

Regarding `N#CCc1cnc2c(N3CCOCC3)nc(-c3cccc(O)c3)nc2c1` [Compound 41, 2-(2-(3-hydroxyphenyl)-4-morpholinopyrido[3,2-d]pyrimidin-7-yl)acetonitrile], the pIC50 was 7.29 on PI3Kα, 6.90 on PI3Kγ, 6.47 on PI3Kδ and 6.09 on mTOR.

As to `O=CCCc1cnc2c(N3CCOCC3)nc(-c3cccc(O)c3)nc2c1` [Compound 46], the pIC50 is 7.24 at PI3Kα, 6.25 on PI3Kγ, 7.09 at PI3Kδ and 5.72 on mTOR.

Take `OCc1cnc2c(N3CCOCC3)nc(-c3cccc(O)c3)nc2c1` [Compound 34, 3-(7-(hydroxymethyl)-4-morpholinopyrido[3,2-d]pyrimidin-2-yl)phenol]: the pIC50 at PI3Kα was 6.44; at PI3Kγ, 7.66; on PI3Kδ, 6.90; at mTOR, 6.46; with HUH7, 6.00; with CaCo2, 5.82. The pIC50 in the assay on MDA is 4.60; with HCT116 it was 5.52; with PC3, 5.30; in the assay with NCl it was less than 4.60; in the assay on Fibroblasts, 4.60.

`O=C(O)c1cnc2c(N3CCOCC3)nc(-c3cccc(O)c3)nc2c1` [Compound 42, 2-(3-hydroxyphenyl)-4-morpholinopyrido[3,2-d]pyrimidine-7-carboxylic acid]: the pIC50 on PI3Kα was 8.00; on PI3Kγ it was 6.40; on PI3Kδ, 7.20; on mTOR, 6.87.

`C=Cc1cnc2c(N3CCOCC3)nc(-c3cccc(O)c3)nc2c1` [Compound 14, 3-(4-morpholino-7-vinylpyrido[3,2-d]pyrimidin-2-yl)phenol]: the pIC50 at PI3Kα is 7.01; on PI3Kγ it was 6.71; at PI3Kδ it was 7.96; on mTOR it was 6.96; in the assay with HUH7 it was 4.70; in the assay on CaCo2, 5.82. The pIC50 is 4.70 in the assay on MDA; 5.30 in the assay on HCT116; 4.70 in the assay on PC3; 4.70 in the assay with NCl; less than 4.60 in the assay with Fibroblasts.

On to `O=Cc1cnc2c(N3CCOCC3)nc(-c3cccc(O)c3)nc2c1` [Compound 20, 2-(3-hydroxyphenyl)-4-morpholinopyrido[3,2-d]pyrimidine-7-carbaldehyde], for which the pIC50 at PI3Kα is 7.33; at PI3Kγ, less than 4.30; on PI3Kδ it was 8.00; at mTOR, 7.15; in the assay with HUH7, 4.70; in the assay on CaCo2 it was 5.40. Besides, the pIC50 with MDA was 4.70; in the assay with HCT116, 5.22; with PC3, 4.60; with NCl, less than 4.60; with Fibroblasts it was less than 4.60.

Regarding `COCc1cn(Cc2cnc3c(N4CCOCC4)nc(-c4ccc(NC(=O)NCC(F)(F)F)cc4)nc3c2)nn1` [Compound 82, 1-[4-(7-{[4-(methoxymethyl)-1H-1,2,3-triazol-1-yl]methyl}-4-(morpholin-4-yl)pyrido[3,2-d]pyrimidin-2-yl)phenyl]-3-(2,2,2-trifluoroethyl)urea], the pIC50 on PI3Kα is 7.74.

Turning to `CN(C)Cc1cn(Cc2cnc3c(N4CCOCC4)nc(-c4cccc(O)c4)nc3c2)nn1` [Compound 58, 3-[7-({4-[(dimethylamino)methyl]-1H-1,2,3-triazol-1-yl}methyl)-4-(morpholin-4-yl)pyrido[3,2-d]pyrimidin-2-yl]phenol], the negative logarithm of the IC50 (pIC50) at PI3Kα is 7.42.

Consider `COCOCc1cn(Cc2cnc3c(N4CCOCC4)nc(-c4cccc(O)c4)nc3c2)nn1` [Compound 59, 3-[7-({4-[(methoxymethoxy)methyl]-1H-1,2,3-triazol-1-yl}methyl)-4-(morpholin-4-yl)pyrido[3,2-d]pyrimidin-2-yl]phenol], for which the pIC50 on PI3Kα is 6.94.

Regarding `CS(=O)(=O)N1CCN(Cc2cnc3c(N4CCOCC4)nc(-c4cccc(O)c4)nc3c2)CC1` [Compound 55, 3-{7-[(4-methanesulfonylpiperazin-1-yl)methyl]-4-(morpholin-4-yl)pyrido[3,2-d]pyrimidin-2-yl}phenol], the pIC50 at PI3Kα is 7.25.

Regarding `Oc1cccc(-c2nc(N3CCOCC3)c3ncc(Cn4cc(CF)nn4)cc3n2)c1` [Compound 61, 3-(7-{[4-(fluoromethyl)-1H-1,2,3-triazol-1-yl]methyl}-4-(morpholin-4-yl)pyrido[3,2-d]pyrimidin-2-yl)phenol], the pIC50 at PI3Kα was 6.41.

By pIC50 is commonly meant the negative decadic logarithm of the IC50, by convention in mol/L.
